Counter-ions that a name gives are not always drawn. Like-named read-outs stand apart in the source and are kept apart here.
Tests used:
LD5 [1] = experiment: LDH activity assay with amphiphile, LDH isoenzymes; format: biochemical, porcine; conditions: even at 10 mM; LD5 from rabbit and hog show almost identical profiles; FIG. 5
Protocol: (§1) 3. Beef heart LDH (Sigma Chemical Co., Type III), rabbit muscle LDH (Sigma Chemical Co., Type V) and porcine LDH, LD1, LD2, LD3, LD4 and LD5 in the form of ammonium sulfate suspensions were used for these examples.
(§2) The assay for LDH activity in both the absence and presence of surfactant was conducted as follows. […] The resulting solution contains approximately 5 units/ml. […] To the equilibrated solution […]. of the enzyme solution was added, and the cuvette was rapidly shaken while covering the top of the cuvette with a small piece of Parafilm® and placed back into the spectrophotometer.
(§3) Amphiphile solutions were prepared by weighing out a given amount of amphiphile, e.g., 100 mg, and preparing a stock solution in 30 mM sodium phosphate buffer in 100 ml. volumetric flask. Solutions of lower amphiphile concentration were prepared by making the appropriate dilutions from the stock solution.

LD1 [2] = experiment: LDH activity assay with amphiphile, LDH isoenzymes; format: biochemical, porcine; conditions: about 10 mM CTAB; FIG. 5
Protocol: as §1, §2, §3

human LD1 = biological target: T1, human LD1 (Homo sapiens, UniProt P07195); experiment: LDH assay with human enzyme-containing serum; format: biochemical; conditions: 2.5 mM CTAB; pH 7.8; 14% protein
T1 construct: A specific human LDH isoenzyme (obtained from liver homogenate or red blood cell); from tissue; host or cells: human liver homogenate or red blood cell
Protocol: as §2
(§4) Pooled human serum, kept frozen until ready for use, was raised to pH 11.5 until all LDH activity was destroyed. The pH was then adjusted to 7.4 and the serum was again assayed for LDH activity to ensure that no LDH had been reactivated. A specific human LDH isoenzyme (obtained from liver homogenate or red blood cell) was then added to the pool to give an enzyme concentration of ~100 U/l. The spiked serum samples were refrigerated between uses and respiked when necessary. Fresh serum was prepared weekly.
(§5) 8. The assay method used is the same as described above for Examples 1-12, except that the test samples consisted of 25-30 μl of serum instead of 100 μl of aqueous enzyme solution.

human LD4 = biological target: T2, human LD4 (Homo sapiens, UniProt P00338+P07195); experiment: LDH assay with human enzyme-containing serum; format: biochemical
T2 construct: A specific human LDH isoenzyme (obtained from liver homogenate or red blood cell); from tissue; host or cells: human liver homogenate or red blood cell
Protocol: as §2, §4, §5

human LD2 = biological target: T3, human LD2 (Homo sapiens, UniProt P00338+P07195); experiment: LDH assay with human enzyme-containing serum; format: biochemical; conditions: 2.5 mM CTAB; pH 7.8; 14% protein
T3 construct: A specific human LDH isoenzyme (obtained from liver homogenate or red blood cell); from tissue; host or cells: human liver homogenate or red blood cell
Protocol: as §2, §4, §5

human LD5 [3] = experiment: LDH assay with human enzyme-containing serum; format: biochemical; conditions: pH 7.4; FIG. 15
Protocol: as §2, §4, §5

human LD5 [4] = biological target: T4, human LD5 (Homo sapiens, UniProt P00338); experiment: LDH assay with human enzyme-containing serum; format: biochemical
T4 construct: A specific human LDH isoenzyme (obtained from liver homogenate or red blood cell); from tissue; host or cells: human liver homogenate or red blood cell
Protocol: as §2, §4, §5

mMDH = biological target: T5, mMDH (Sus scrofa, UniProt P00346); experiment: Assay for MDH (oxalacetic acid + NADH, 340 nm); format: biochemical, porcine
T5 construct: Porcine cMDH and mMDH were used as ammonium sulfate suspensions
T5 sequence (P00346 25-338): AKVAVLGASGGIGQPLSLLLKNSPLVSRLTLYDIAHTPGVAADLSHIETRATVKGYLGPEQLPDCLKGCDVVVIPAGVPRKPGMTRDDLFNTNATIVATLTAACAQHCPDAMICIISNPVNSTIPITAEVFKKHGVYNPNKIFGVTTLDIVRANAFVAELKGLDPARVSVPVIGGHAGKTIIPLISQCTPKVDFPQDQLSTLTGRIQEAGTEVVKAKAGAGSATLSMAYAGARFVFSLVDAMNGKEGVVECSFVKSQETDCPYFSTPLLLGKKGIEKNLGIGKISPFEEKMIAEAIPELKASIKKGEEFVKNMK
Protocol: (§6) 1. Porcine cMDH and mMDH were used as ammonium sulfate suspensions. Typically, 5 μl of the enzyme stock solutions were diluted to 10 ml with 30 mM phosphate buffer, pH 7.4, prior to use. The resulting enzyme solutions were stored in ice water; 100 μl aliquots were withdrawn for assay except where another amount is specified.
(§7) The assay is based on conversion of oxalacetic acid to malate in the presence of NADH and MDH. The assay was made [formula] in 30 mM phosphate buffer, at ambient temperature, with and without appropriate surfactant concentrations, and contained 0.17 mM OAA and 0.13 mM NADH. The reaction was followed by monitoring the decrease in absorbance at 340 nm using either a Beckman 25 or Cary 118 spectrophotometer. The OAA solutions were stored over ice to prevent hydrolysis to pyruvic acid.

cMDH = biological target: T6, cMDH (Sus scrofa, UniProt P11708); experiment: Assay for MDH (oxalacetic acid + NADH, 340 nm); format: biochemical, porcine
T6 construct: Porcine cMDH and mMDH were used as ammonium sulfate suspensions
Protocol: as §6, §7

[5] = system: isoenzymes of creatinine phosphokinase (CPK); experiment: Conventional coupled CPK assay (hexokinase, glucose-6-phosphate dehydrogenase); format: biochemical; conditions: conventional assay with coupled reactions, hexokinase and glucose-6-phosphate dehydrogenase
Source text: Of course, the particular amphiphile used and the concentration at which it is used will depend upon the particular isoenzyme being assayed. Not every amphiphile will have a discriminatory effect on the activity of isoenzymes in each isoenzyme system.

LD5 [6] = biological target: LD5 (Sus scrofa, UniProt P00339); experiment: LDH activity assay with amphiphile, LDH isoenzymes; format: biochemical, porcine; set-up: LD5 from two different species, i.e., rabbit muscle and hog muscle; from tissue; host or cells: hog muscle
Protocol: as §1, §2, §3

LD1 [7] = biological target: T7, LD1 (Sus scrofa, UniProt P00336); experiment: Effect of cationic amphiphiles on the activity of LDH isoenzymes (Table 1); format: biochemical; conditions: 30 mM sodium phosphate buffer pH 7.4, 25° C.; for IC50: read-out: Amphiphile conc. Req'd for 50% Inactivation of Specified Isoenzyme (LD1)
Protocol: as §2, §3
A number of cationic amphiphiles were investigated for specific inactivation of LD1 in the presence of LD5 and these compounds are listed in Table 1.

human LD1, LD2 and LD3 = experiment: LDH assay with human serum sample containing LD1, LD2 and LD3; format: biochemical; conditions: CTAB 0.002-0.004 M; 25 μl serum; FIG. 13
Protocol: as §2, §4, §5

LD1 and LD5 = experiment: Screening of amphiphiles for ability to discriminate between LD1 and LD5; conditions: for Effectiveness (LDH isoenzyme inhibition specificity, LD1 vs LD5): range of amphiphile concentrations, relative activity vs buffer
Protocol: A series of solutions was prepared covering a range of concentrations for each amphiphile to be tested. The activities of both LD1 and LD5 were determined in the presence of the various concentrations of each amphiphile and compared with enzyme activities in buffer (relative activity).
Enzyme activity in the presence and absence of amphiphile was measured by the following procedure: Stock solutions of NADH (4 mM) and pyruvate (40 mM) were prepared daily in 30 mM sodium phosphate buffer, pH 7.4. Enzyme solutions were prepared daily by withdrawing 5 μl of the stock enzyme solutions with a Hamilton syringe and diluting to 5 ml with 30 mM sodium phosphate buffer. (The resulting solution contains approximately 5 U of enzyme/ml.) The enzyme assay was run by pipetting 2.7 ml of buffer or buffer surfactant solution into a 10 mm path length quartz cuvette, and 100 μl each of NADH and pyruvate stock solutions were added. […] Enzyme solution was added with good mixing; the absorbance decrease at 340 nm was measured as a function of time. The rate of the reaction was determined by measuring the slope of the initial absorbance decrease, i.e., within the first 50 seconds of the reaction.

LD4 = biological target: T8, LD4 (Sus scrofa, UniProt P00336+P00339); experiment: LDH activity assay with amphiphile, LDH isoenzymes; format: biochemical, porcine
T8 construct: porcine LDH, LD1, LD2, LD3, LD4 and LD5 in the form of ammonium sulfate suspensions
Protocol: as §1, §2, §3

LD2 = biological target: T9, LD2 (Sus scrofa, UniProt P00336+P00339); experiment: LDH activity assay with amphiphile, LDH isoenzymes; format: biochemical, porcine
T9 construct: porcine LDH, LD1, LD2, LD3, LD4 and LD5 in the form of ammonium sulfate suspensions
Protocol: as §1, §2, §3

LD3 = biological target: T10, LD3 (Sus scrofa, UniProt P00336+P00339); experiment: LDH activity assay with amphiphile, LDH isoenzymes; format: biochemical, porcine
T10 construct: porcine LDH, LD1, LD2, LD3, LD4 and LD5 in the form of ammonium sulfate suspensions
Protocol: as §1, §2, §3

LD1 [8] = biological target: T7, LD1; experiment: LDH activity assay with amphiphile, LDH isoenzymes; format: biochemical, porcine; set-up: porcine LDH, LD1, LD2, LD3, LD4 and LD5 in the form of ammonium sulfate suspensions
Protocol: as §1, §2, §3

[9] = biological target: T11, LDH isoenzymes (LD5 in the presence of LD1) (Oryctolagus cuniculus, UniProt P13491); experiment: Anionic amphiphiles tested for specific interaction with LDH isoenzymes (Table 2); format: biochemical
T11 construct: LD1 (LDHB tetramer) only as comparison
Protocol: as §2, §3
A number of anionic amphiphiles were investigated for specific inactivation of LD5 in the presence of LD1 and these compounds are listed in Table 2.

[10] = 2.5 mM CTAB, pH 7.8, 14% protein
[11] = rate measurements after 2 minutes, FIG. 18

CCCCCCCCCCCCCCCC[N+](C)(C)C.[Br-] [CTAB, hexadecyltrimethylammonium bromide]
control LD5 activity lost in CTAB solutions (LD5 [1]): No more than 30% | LD1 susceptibility to inactivation at high surfactant concentrations (LD1 [2]): less susceptible to inactivation | human LD1 activity (human LD1): completely inactivated | human LD4 activity (human LD4; [10]): fully active | human LD4 activity (human LD4; 3 mM CTAB in 14% protein, pH 7.75-7.85, 30 μl serum): completely inactivated | human LD2 activity (human LD2): completely inactivated | discrimination between human LD5 and LD4 (human LD5 [3]): inadequate discrimination | human LD5 activity (human LD5 [4]; [10]): fully active | retained activity of human LD5 (human LD5 [4]; CTAB 0.002-0.004 M, 25 μl serum, FIG. 13): at least 60% | activity at 3000 µM (human LD5 [4]; read-out: human LD5 activity): > 100% | remaining activity at 300 µM (mMDH; pH 7.4, 0.3 mM CTAB, initial reaction rates, FIG. 16, read-out: mMDH activity relative to a buffer control): 100% | effect on mMDH with increased exposure time (mMDH; [11]): no effect | cMDH activity (cMDH; 0.3 mM CTAB, initial reaction rates, FIG. 16): essentially completely inactivated | cMDH inactivation with increased exposure time (cMDH; [11]): more effectively inactivates cMDH | discriminatory effect on the activities of the isoenzymes of CPK [5]: do not appear to have any discriminatory effect | activity at 275 µM (LD5 [6]; pH 7.4, read-out: activity of LD5 in CTAB, % of the buffer value): 90 to 95% | IC50 (LD1 [7]): 0.9 mM | activity of human serum sample containing LD1, LD2 and LD3 (human LD1, LD2 and LD3): completely inactivated | discrimination of LDH isoenzymes (LD1 and LD5): excellent discriminators

CCCCCCCCCCCCCCCCCCNC(=O)CC(C(=O)O)S(=O)(=O)O (stereo not shown) [Disodium N-octadecylsulfosuccinamate]
Effectiveness (LDH isoenzyme inhibition specificity, LD1 vs LD5) (LD1 and LD5): ++

CCCCCCCCCCCCN [Dodecylamine . HCl]
IC50 (LD1 [7]): 13 mM | Effectiveness (LDH isoenzyme inhibition specificity, LD1 vs LD5) (LD1 and LD5): ++

CCCCCCCCCCCC[N+](C)(C)C.[Br-] [Dodecyltrimethylammonium bromide]
IC50 (LD1 [7]): 10 mM | Effectiveness (LDH isoenzyme inhibition specificity, LD1 vs LD5) (LD1 and LD5): -

CC[n+]1ccccc1.[Br-] [N-Ethylpyridinium bromide]
Amphiphile conc. Req'd for 50% Inactivation of Specified Isoenzyme (LD1) (LD1 [7]): no effect

CCCCCCCCCCCCCCCC(=O)NCCC[N+](C)(C)CCO.[Cl-] [N-β-hydroxyethyl-N,N-dimethyl-N-3-palmitamidopropylammonium chloride]
retention of LD4 activity (LD4; FIG. 11): ~ 60% | effect on LD2 activity (LD2; FIG. 11): inactivated mostly | effect on LD3 activity (LD3; FIG. 11): inactivated mostly | effect on LD1 activity (LD1 [8]; FIG. 11): inactivated mostly | retention of LD5 activity (LD5 [6]; FIG. 11): 90% | Effectiveness (LDH isoenzyme inhibition specificity, LD1 vs LD5) (LD1 and LD5): ++

CCCCCCCCC[N+](C)(C)C [Nonatrimethylammonium bromide]
IC50 (LD1 [7]): 0.35 mM | Effectiveness (LDH isoenzyme inhibition specificity, LD1 vs LD5) (LD1 and LD5): -

CCCCCCCCCCCCOS(=O)(=O)[O-].[Na+] [SDS, sodium dodecylsulfate]
LD4 activity (LD4; 1.5 mM SDS, FIG. 9): nil | activity at 3500 µM (LD2; pH 7.4, read-out: LD2 activity): 0% | remaining activity at 1500 µM (LD2; pH 7.4, read-out: LD2 activity remaining): 65% | remaining activity at 1500 µM (LD3; pH 7.4, read-out: LD3 activity remaining): 50% | remaining activity at 1500 µM (LD1 [8]; pH 7.4, read-out: LD1 activity remaining): 95% | remaining activity at 3500 µM (LD1 [8]; pH 7.4, read-out: LD1 activity, % of buffer control): 78% | LD5 activity (LD5 [6]; 1.5 mM SDS, FIG. 9): nil | Effectiveness (LDH isoenzyme inhibition specificity, LD1 vs LD5) (LD1 and LD5): ++ | Interaction (specific inactivation of LD5 in the presence of LD1) [9]: useful positive results | Interaction (specific inactivation of LD5 in the presence of LD1) ([9]; listed as sodium dodecylsulfate): specific

CCCCCCCC/C=C\CCCCCCCC(=O)N(C)CCS(=O)(=O)O [Sodium N-methyl-N-oleoyl taurate]
Effectiveness (LDH isoenzyme inhibition specificity, LD1 vs LD5) (LD1 and LD5): 0

CCCCOS(=O)(=O)[O-].[Na+] [Sodium butyl sulfate]
Effectiveness (LDH isoenzyme inhibition specificity, LD1 vs LD5) (LD1 and LD5): 0

C[C@H](CCC(=O)O)[C@H]1CC[C@H]2[C@@H]3C(=O)C[C@@H]4CC(=O)CC[C@]4(C)[C@H]3CC(=O)[C@]12C [Sodium dehydrocholate]
Effectiveness (LDH isoenzyme inhibition specificity, LD1 vs LD5) (LD1 and LD5): 0

Reference: US4250255A, “Assay method for isoenzyme activity” (Eastman Kodak Company, priority 1977, dated 1981)
